# How the values were obtained:
# [1] = test system: rewarding effect of morphine; assay: Conditioned place preference (CPP) test in chronic morphine-treated rats; type: in vivo, SD rats
# Description: The SD rats were divided into four groups as follow: • 1. Control group: (inject saline only) • 2. Morphine only group: (M, 5 mg/kg) • 3. Pretreatment memantine (MEM, 0.2 mg/kg) with morphine group • (MEM was administrated 30 min before each M injection for 6 days) • 4. Post-treatment MEM group • (MEM was administrated after chronic M injection for 6 days)
# Drug-induced reward effect was measured by the conditioned place preference (CPP) test. The CPP test apparatus was divided into two compartments. A two compartment box (60×29.2×29.2 cm) with a transparent Plexiglas front was separated by a gray cylinder platform (10.3 cm in diameter and 12 cm in height) as the Dr. Tseng described previously was used (Terashvili et al., 2008). One compartment was white with a textured floor and the other was black with a smooth floor. […] We determined the place preference before conditioning and on the day after conditioning (day 0, day 7, day 11 and day 13) by placing the rat into the CPP test apparatus with the gray cylinder doors open for 15 min. The time that the rats stayed in each compartment was recorded. The measurement of the drug reward effect was determined by the increase in the time spent in the compartment previously paired with drug injection relative to that spent in the saline-paired compartment.
# microglia = assay: OX-42 immunostaining of LPS-activated microglia in neuron-glia cultures; type: cell-based; conditions: MMT 3 μM pretreated 30 min, twelve hours after LPS
# Description: DA neurons were recognized with the polyclonal antibody against tyrosine hydroxylase (TH) and microglia was detected with the OX-42 antibody against CR3 receptor. Briefly, cells were fixed for 20 min at room temperature in 3.7% formaldehyde diluted in phosphate-buffered saline (PBS). After washing twice with PBS, the cultures were treated with 1% hydrogen peroxide for 10 min. […] To quantify cell numbers, nine representative areas per well in the 24-well plate were counted under the microscope at 100× magnification by two individuals. […]
# To provide evidence of anti-inflammatory effect of MMT, the degree of inhibition of LPS-induced activation of microglia was determined by 1) morphological observation after immunostaining of microglia marker (OX-42) and 2) release of pro-inflammatory factors from activated microglia, such as extracelloualr superoxide radicals, intracellular reactive oxygen species (iROS), nitric oxide (NO), PGE2. […]
# DA neurons = assay: [3H] DA uptake, MMT alone in rat mesencephalic neuron-glia cultures (neurotrophic effect); type: cell-based; conditions: for increase of DA uptake capacity by MMT alone: one week
# Description: Rat and mouse ventral mesencephalic neuron-glia cultures were prepared using a described protocol (Gao H M, Hong J S, Zhang W Q, Liu B (2002) Distinct Role for Microglia in Rotenone-Induced Degeneration of Dopaminergic Neurons. J Neurosci 22(3):782-790). Briefly, midbrain tissues were dissected from day 14 Fisher 344 rat embryos or day 14 mouse embryos (PHOX^+/+ or PHOX^−/−). Cells were dissociated via gentle mechanical trituration in minimum essential medium (MEM) and immediately seeded (5×10^5/well) in poly D-lysine (20 μg/mL) precoated 24-well plates. Cells were seeded in maintenance media and treated with the treatment media described previously (Gao H M, Hong J S, Zhang W Q, Liu B (2002) Distinct Role for Microglia in Rotenone-Induced Degeneration of Dopaminergic Neurons. J Neurosci 22(3):782-790). Three days after seeding, the cells were replenished with 500 μL of fresh maintenance media. Cultures were exposed 7 days after seeding. At the time of treatment, the composition of the cultures was approximately 48% astrocytes, 11% microglia, 40% neurons, and 1 to 1.5% TH-immunoreactive (ir) neurons.
# Cells were incubated in Krebs-Ringer buffer (16 mM NaH2PO4, 1.2 mM MgSO4, 1.3 mM EDTA, […], for 21 min at 37° C. with 1 μM [^3H] DA. Nonspecific uptake was blocked for DA with 10 μM mazindole. After incubation, cells were washed three times with 1 mL/well of ice-cold Krebs-Ringer buffer. Cells were then lysed with 0.5 mL/well of 1 N NaOH and mixed with 15 mL of scintillation fluid. Radioactivity was measured on a scintillation counter, where specific [^3H] DA uptake was calculated by subtracting the mazindole.
# Rat mesencephalic neuron-glia cultures were pretreated for 30 min with vehicle or 1, 3, 10 μM MMT before adding LPS (2.5 to 5 ng/ml) to the cultures. One week later, the neurotoxic effect of LPS on DA neurons were assessed by both [H^3] DA uptake, which measures the functional capacity of high affinity uptake of DA cells and cell count of tyrosine hydroxylase-positive (TH-ir) cells. [H^3] […]
structure (smiles),measurement,setting,value
"CC12CC3CC(C)(C1)CC(N)(C3)C2.Cl [MMT, 1-amino-3,5-dimethyladamantane hydrochloride]",time of staying in the compartment paired with morphine (CPP),"[1]; post-treatment, memantine 0.2 mg/kg s.c. once daily for 6 days after chronic morphine",reduced time of staying in the compartment paired with morphine
same,time of staying in the compartment paired with morphine (CPP),"[1]; pretreatment, memantine 0.2 mg/kg s.c. 30 min before each morphine 5 mg/kg i.p., 6 days",reduced time of staying in the compartment paired with morphine
same,activation of OX-42 stained microglia vs LPS-treated cultures,microglia,less activated
same,increase of DA uptake capacity by MMT alone,DA neurons; 3 μM MMT,30%
same,increase of DA uptake capacity by MMT alone,DA neurons; 10 μM MMT,80%
same,effect against spontaneous DA neurons death,"DA neurons; MMT alone, rat primary midbrain neuron-glia cultures",dose-dependent surviving-promoting effects

# Reference: patent publication US20150080475A1, “Memantine Protects Inflammation-Related Degeneration of Dopamine Neurons Through Inhibition of Over-Activated Microglia and Release of Neurotrophic Factors From Astroglia” (priority 2009, published 2015)
